Values quoted from earlier work in patent US7745641B2, “Nitrogen-containing heterocyclic compound” (Kyowa Hakko Kirin Co., Ltd., priority 2005, dated 2010).

Experiments:
[1] = system: human-tumor-transplant rat models; settings: cited from earlier work
[2] = system: human-tumor-transplant mouse models; settings: cited from earlier work

## Cc1cc(Nc2cc(N3CCN(C)CC3)nc(Sc3ccc(NC(=O)C4CC4)cc3)n2)n[nH]1 [VX-680]
[1]
  antitumor activity: exhibits an antitumor activity
[2]
  antitumor activity: exhibits an antitumor activity
